PMC6600542 (Molecules, 2019)

Tests used:
normal human plasma [1] = test: APTT clotting assay, normal human plasma; type: biochemical
Method: (§1) For the PT assay, thromboplastin-D was reconstituted according to the manufacturer’s directions and warmed to 37 °C. […] After incubation for 4 min at 37 °C, clotting was initiated by adding 100 μL of prewarmed 25 mM CaCl2 and the time to clotting was noted. […] To determine the in vitro effect on the APTT of deficient human plasmas, the APTT assay was repeated, using human plasmas deficient of factor VII (FVII), factor IX (FIX), FXI, or factor XII (FXII). […] The positive control used in APTT and PT assays was rivaroxaban, a clinically used FXa inhibitor. Under the conditions reported, rivaroxaban doubled the APTT and PT at concentrations of 0.123 ± 0.003 µM and 0.193 ± 0.043 µM, respectively.

normal human plasma [2] = test: PT clotting assay, normal human plasma; type: biochemical; conditions: normal human plasma (text)
Method: as §1

normal human plasma [3] = conditions: cited from earlier work

SMILES	effect on the APTT (normal human plasma [1]; normal human plasma, highest concentration tested of 33.3 mM)	concentration to double the PT (normal human plasma [2]) [µM]	effect on TT (normal human plasma [3])	concentration to double the APTT (normal human plasma [1]; normal human plasma (text)) [µM]
O=S(=O)(O)CCO [isethionic acid]	did not affect the APTT	–	–	–
O=C(NC[C@H]1CN(c2ccc(N3CCOCC3=O)cc2)C(=O)O1)c1ccc(Cl)s1 [rivaroxaban]	–	0.193 ± 0.043	no effect on TT	0.123 ± 0.003
